According to patent publication US12383539B2 (Cavion, Inc., priority 2018, dated 2025):

Columns and labels:
[1] = tested on: patients with essential tremor; experiment: T-CALM: Clinical Global Impression of Improvement (CGI-I); format: in vivo, human; settings: Day 28; N = 39
Source text: The Clinical Global Impressions Scale (CGI) was developed for use in NIMH-sponsored clinical trials to provide a brief, stand-alone assessment of the clinician's view of a patient's global functioning before and after initiating a study medication (Guy (ed.), ECDEU Assessment Manual for Psychopharmacology. Rockville, MD: US Department of Health, Education, and Welfare Public Health Service Alcohol, Drug Abuse, and Mental Health Administration; 1976). The CGI is a summary measure that takes into account all available information, including knowledge of the patient's history, psychosocial circumstances, symptoms, behavior, and the impact of the symptoms on the patient's ability to function. The CGI has two forms—the CGI-Severity, which rates illness severity at baseline, and the CGI-Improvement, which rates change from baseline.
The CGI-I consists of a single 7-point rating of total improvement or change from baseline CGI-S, regardless of whether or not the change is due entirely to drug treatment.
Treatment success as measured by CGI-I was summarized using descriptive statistics.
The Clinical Global Impressions Scale (CGI) generates a clinician's perception of a patient's functioning prior to and after study medication (see, e.g., Guy, Assessment Manual for Psychopharmacology. Rockville, MD: Department of Health, Education, and Welfare Public Health Service Alcohol, Drug Abuse, and Mental Health Administration, 1976). The CGI overall score considers patient history, psychosocial situations, symptoms and behavior with respect to the ability to function. The CGI-Improvement (CGI-I) will involve a single 7-point rating of total improvement or change from baseline CGI-Severity (CGI-S).

[2] = tested on: patients with essential tremor; experiment: T-CALM: TETRAS performance subscale (TETRAS-PS); settings: for TETRAS-PS total score, change from baseline to Day 28, LS mean difference from placebo (95% CI) / TETRAS-PS total score, change from baseline to Day 28, LS mean (SE): ANCOVA; for TETRAS-PS total score, change from baseline to Day 28, LS mean (SE): multiple imputation
[3] = Healthy volunteer PK studies PN001/PN002 with IR capsules; format: in vivo, human
[4] = tested on: patients with essential tremor; experiment: T-CALM: Kinesia ONE accelerometry score; format: in vivo, human
Source text: Kinesia One platform is deployed in T-CALM as a digital marker of tremor severity. Kinesia One is FDA cleared for monitoring Parkinson's motor symptom severity with only limited data on assessment of tremor in ET patients. The algorithmically derived score was developed primarily in Parkinson's disease algorithms and has limited validation in ET (see, e.g., Hoffman et al., 2011 Conf Proc IEEE Eng Med Biol Soc. 2011:4378-81). The Kinesia One device is placed on the index finger of each ET patient and worn in the clinic after completion of the TETRAS Performance subscale. Four tasks are performed by the patient on the left and right sides to assess resting, postural, kinetic and lateral wing beating tremor. The Kinesia One score change in score from baseline to day 28 is evaluated as a secondary efficacy endpoint. The Kinesia One data is also utilized for exploratory analysis of efficacy on the change from baseline to day 15 for accelerometry score and for change from baseline on amplitude measures for days 15 and 28. Consistent finger sensor placement and consistent task execution are critical factors for valid Kinesia One scores.
Both sets of scores were statistically analyzed.

[5] = Average of the single-dose studies (dose 16)

For `CC(C)c1ccc(CC(=O)N[C@H](C)c2ccc(OCC(F)(F)F)cn2)cc1` [CX-8998], the “CGI-I category 2 Much improved, number (%) of patients” value [1] was 9 (23%), the “CGI-I category 3 Very much improved, number (%) of patients” value [1] was 0 and the “CGI-I category −1 Minimally worse, number (%) of patients” value [1] was 0. The “CGI-I category −2 Much worse, number (%) of patients” value [1] was 0, the “CGI-I category −3 Very much worse, number (%) of patients” value [1] was 0 and the “responders: improvement of at least 5 points by TETRAS-PS score, %” value ([2]; Day 15) was “(30.8%)”. For the same molecule, the “TETRAS-PS change from baseline 0 change: subjects, number (%)” value ([2]; Day 15, N = 39) was 2 (5.1%), the “TETRAS-PS change from baseline >0 to 1 point improvement: subjects, number (%)” value ([2]; Day 15, N = 39) was 3 (7.7%) and the “TETRAS-PS change from baseline >0 to 1 point worsening: subjects, number (%)” value ([2]; Day 15, N = 39) was 2 (5.1%). The “TETRAS-PS change from baseline >1 to 2.5 point improvement: subjects, number (%)” value ([2]; Day 15, N = 39) was 4 (10.3%), the “TETRAS-PS change from baseline >1 to 2.5 point worsening: subjects, number (%)” value ([2]; Day 15, N = 39) was 5 (12.8%) and the “TETRAS-PS change from baseline >2.5 to 5 point improvement: subjects, number (%)” value ([2]; Day 15, N = 39) was 10 (25.6%). For the same molecule, the “TETRAS-PS change from baseline >2.5 to 5 point worsening: subjects, number (%)” value ([2]; Day 15, N = 39) was 2 (5.1%), the “TETRAS-PS change from baseline >5 to 10 point improvement: subjects, number (%)” value ([2]; Day 15, N = 39) was 8 (20.5%) and the “TETRAS-PS change from baseline >5 to 10 point worsening: subjects, number (%)” value ([2]; Day 15, N = 39) was 0. For the same molecule, the “TETRAS-PS change from baseline >10 point improvement: subjects, number (%)” value ([2]; Day 15, N = 39) was 3 (7.7%), the “TETRAS-PS change from baseline >10 point worsening: subjects, number (%)” value ([2]; Day 15, N = 39) was 0 and the “responders: improvement of at least 5 points by TETRAS-PS score, %” value ([2]; Day 28) was “(43.2%)”. The “responders: improvement of at least 5 points by TETRAS-PS score, number” value ([2]; Day 28, N 37) was 16, the “TETRAS-PS change from baseline 0 change: subjects, number (%)” value ([2]; Day 28, N = 37) was 1 (2.6%) and the “TETRAS-PS change from baseline >0 to 1 point improvement: subjects, number (%)” value ([2]; Day 28, N = 37) was 6 (15.4%). For the same molecule, the “TETRAS-PS change from baseline >0 to 1 point worsening: subjects, number (%)” value ([2]; Day 28, N = 37) was 2 (5.1%), the “TETRAS-PS change from baseline >1 to 2.5 point improvement: subjects, number (%)” value ([2]; Day 28, N = 37) was 5 (12.8%) and the “TETRAS-PS change from baseline >1 to 2.5 point worsening: subjects, number (%)” value ([2]; Day 28, N = 37) was 1 (2.6%). The “TETRAS-PS change from baseline >2.5 to 5 point improvement: subjects, number (%)” value ([2]; Day 28, N = 37) was 11 (28.2%), the “TETRAS-PS change from baseline >2.5 to 5 point worsening: subjects, number (%)” value ([2]; Day 28, N = 37) was 1 (2.6%) and the “TETRAS-PS change from baseline >5 to 10 point improvement: subjects, number (%)” value ([2]; Day 28, N = 37) was 8 (20.5%). For the same molecule, the “TETRAS-PS change from baseline >5 to 10 point worsening: subjects, number (%)” value ([2]; Day 28, N = 37) was 0, the “TETRAS-PS change from baseline >10 point improvement: subjects, number (%)” value ([2]; Day 28, N = 37) was 4 (10.3%) and the “TETRAS-PS change from baseline >10 point worsening: subjects, number (%)” value ([2]; Day 28, N = 37) was 0. The “TETRAS-PS scored by investigators (in person), change from baseline, LS mean (±SE)” value ([2]; Day 28, analysis of Example 25) was −4.8±0.80, the “TETRAS-PS scored by independent video raters, change from baseline, LS mean (±SE)” value ([2]; Day 28, primary endpoint) was −1.8±0.81 and the “TETRAS-PS total score, Mean (SD)” value ([2]; Day 28, Investigator Rated) was 23.6 (5.50). The “TETRAS-PS total score, change from baseline to Day 28, Mean (SD)” value ([2]; Independent Video Raters) was −1.6 (4.36), the “TETRAS-PS total score, change from baseline to Day 28, Median” value ([2]; Independent Video Raters) was −1.5 and the “TETRAS-PS total score, change from baseline to Day 28, LS mean difference from placebo (95% CI)” value ([2]; Independent Video Raters) was 0.5 (−1.5, 2.5). For the same molecule, the “TETRAS-PS total score, change from baseline to Day 28, LS mean (SE)” value ([2]; Independent Video Raters) was −1.8 (0.81), the “TETRAS-PS total score, change from baseline to Day 28, LS mean difference from placebo (95% CI)” value ([2]; Investigator Rated) was −2.0 (−4.0, 0.0) and the “TETRAS-PS total score, change from baseline to Day 28, LS mean (SE)” value ([2]; Investigator Rated) was −4.8 (0.80). For the same molecule, the “TETRAS-PS total score, change from baseline to Day 28, Mean (SD)” value ([2]; subgroup No Concurrent Tremor Medication at Day 1, Independent Video Raters) was −2.5 (5.33), the AUC0-24 [3, 5] was 8.22 µM·h and the AUCinf [3, 5] was 13.2 µM·h. The Cmax [3, 5] was 1060 nM, the AUC0-24 ([3]; PN001 Part 1, 16 mg, 1 dose) was 8.52 µM·h and the AUCinf ([3]; PN001 Part 1, 16 mg, 1 dose) was 12.5 µM·h. For the same molecule, the AUC0-24 ([3]; PN001 Part 2, 18 mg, 1 dose) was 9.93 µM·h, the AUCinf ([3]; PN001 Part 2, 18 mg, 1 dose) was 14.6 µM·h and the Cmax ([3]; PN001 Part 2, 18 mg, 1 dose, healthy volunteers) was 1180 nM. It also gave an AUC0-24 ([3]; PN002 Part 1, 18 mg, 1 dose) of 9.44 µM·h, an AUCinf ([3]; PN002 Part 1, 18 mg, 1 dose) of 18.5 µM·h and a Cmax ([3]; PN002 Part 1, 18 mg, 1 dose, healthy volunteers) of 1330 nM. It also gave an AUC0-24 ([3]; PN002 Part 2, 12 mg, 1 dose) of 4.99 µM·h, an AUCinf ([3]; PN002 Part 2, 12 mg, 1 dose) of 7.31 µM·h and a Cmax ([3]; PN002 Part 2, 12 mg, 1 dose, healthy volunteers) of 798 nM. For the same molecule, the “dose proportionality of plasma profiles” value ([3]; immediate release capsules, human subjects) was “dose proportional in the 2-18 mg dose range”, the “Kinesia ONE total score, Median” value ([4]; Day 15) was 7.9 and the “Kinesia ONE total score, change from baseline, Median” value ([4]; Day 15) was −1.1. The “Kinesia ONE score vs placebo” value ([4]; Day 15 and Day 28) was “did not show a significant difference”, the “Kinesia ONE total score, Median” value ([4]; Day 28) was 7.8 and the “Kinesia ONE total score, change from baseline, Median” value ([4]; Day 28) was −0.7.
